Measured values published in ChEMBL document CHEMBL4507277.

Assays:
Conditions in all cases: Compound concentration 10.0 uM
[1] = target: 5-hydroxytryptamine receptor 5A (Homo sapiens) (UniProt P47898)
[2] = target: Sodium/potassium-transporting ATPase subunit alpha-1 (Sus scrofa) (UniProt P05024)
[3] = target: Calpain-1 catalytic subunit (Homo sapiens) (UniProt P07384)
Sequence of Calpain-1 catalytic subunit (Homo sapiens) (P07384 whole entry): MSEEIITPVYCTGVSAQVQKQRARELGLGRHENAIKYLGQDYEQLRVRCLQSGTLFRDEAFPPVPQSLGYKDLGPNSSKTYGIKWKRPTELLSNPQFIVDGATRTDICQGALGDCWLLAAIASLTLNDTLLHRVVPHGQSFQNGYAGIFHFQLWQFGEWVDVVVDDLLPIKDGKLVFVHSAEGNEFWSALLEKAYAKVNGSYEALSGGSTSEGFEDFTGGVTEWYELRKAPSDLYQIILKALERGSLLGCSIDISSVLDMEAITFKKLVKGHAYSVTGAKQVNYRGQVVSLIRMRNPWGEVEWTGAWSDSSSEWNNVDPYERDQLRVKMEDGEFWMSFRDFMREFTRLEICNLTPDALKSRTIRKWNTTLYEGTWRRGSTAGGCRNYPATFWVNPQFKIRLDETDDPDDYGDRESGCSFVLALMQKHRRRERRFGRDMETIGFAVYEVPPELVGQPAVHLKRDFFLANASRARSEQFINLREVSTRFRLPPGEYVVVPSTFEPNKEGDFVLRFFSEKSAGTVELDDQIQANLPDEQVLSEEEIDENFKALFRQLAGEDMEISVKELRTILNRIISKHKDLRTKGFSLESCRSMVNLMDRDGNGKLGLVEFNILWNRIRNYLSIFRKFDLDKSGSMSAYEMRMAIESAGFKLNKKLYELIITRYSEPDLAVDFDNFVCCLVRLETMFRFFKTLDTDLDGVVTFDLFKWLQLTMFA

Sequence of 5-hydroxytryptamine receptor 5A (Homo sapiens) (P47898 whole entry): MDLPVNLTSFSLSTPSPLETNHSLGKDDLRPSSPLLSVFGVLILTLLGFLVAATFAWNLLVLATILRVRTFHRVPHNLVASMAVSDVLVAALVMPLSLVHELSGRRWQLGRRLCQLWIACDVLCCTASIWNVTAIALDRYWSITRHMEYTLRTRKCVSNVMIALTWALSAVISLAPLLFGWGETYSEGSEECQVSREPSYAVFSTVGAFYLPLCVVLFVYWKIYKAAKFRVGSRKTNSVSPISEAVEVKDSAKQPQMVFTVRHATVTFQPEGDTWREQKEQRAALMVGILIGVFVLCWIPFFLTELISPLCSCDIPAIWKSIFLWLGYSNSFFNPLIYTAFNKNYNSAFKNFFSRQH

CCS(=O)(=O)c1cc2cc(C[C@](O)(CC(C)(C)c3ccc(F)cc3C(N)=O)C(F)(F)F)[nH]c2cn1
inactive: inhibition [1] 12.2% | residual activity [2] 115% | residual activity [3] 98%
